Assay results: patent US20230060873A1, “COMPOUNDS AND METHODS FOR FORMING ION CHANNELS IN BIOLOGICAL MEMBRANES” (Washington University, priority 2021, published 2023)
Converted amounts (≈) assume the structure as drawn.

What was measured:
Escherichia coli = assay: Toxicity (MIC) of dialkylated lariat ethers on E. coli; assay type: cell-based; conditions: E. coli XL1 blue, 12 h, visual turbidity, read-out: minimum inhibitory concentration (MIC)
Description: (§1) The cyto-toxicity was determined by measuring the minimum inhibitory concentrations (MIC) for this series of dialkylated lariat ethers in the Gram-negative bacteria Escherichia coli, the Gram-positive bacteria Bacillus subtilis, and human embryonic kidney (HEK293T) cells.
On bacteria. XL1 blue strain Escherichia coli cells transformed with a pET28a plasmid (which contains a kanamycin resistance gene) were grown at 37° C. in 2 mL of LB medium (Miller's LB broth, Research Products International) supplemented with 50 μg/mL of kanamycin until the optical density (600 nm) reached 0.600. The starting density of bacteria in the remainder of the experiments was a 1/100 dilution of this bacterial density, which was split into 4 mL cultures. A series of 400, 100, 10 and 5 mM stock solutions of each dialkylated diaza(18-crown-6) compounds in trifluoroethanol (TFE) were diluted by adding to the 4 mL cultures until final concentrations of 400, 200, 100, 50, 20, 15, 10, 5, 4, 3, 2 and 1 μM were reached, with the final TFE concentration never >0.1% v/v. Negative controls in the presence of TFE 0.1% v/v or the absence of any treatment were done for each batch. The cultures were incubated at 37° C. with agitation for 12 h. Bacillus subtilis (168 WT) toxicity tests were carried out using an identical protocol, except for the addition of the antibiotic. […]

Bacillus subtilis = assay: Toxicity (MIC) of dialkylated lariat ethers on B. subtilis; assay type: cell-based; conditions: B. subtilis 168 WT, 12 h, visual turbidity, read-out: minimum inhibitory concentration (MIC)
Description: as §1
On bacteria. XL1 blue strain Escherichia coli cells transformed with a pET28a plasmid (which contains a kanamycin resistance gene) were grown at 37° C. in 2 mL of LB medium (Miller's LB broth, Research Products International) supplemented with 50 μg/mL of kanamycin until the optical density (600 nm) reached 0.600. The starting density of bacteria in the remainder of the experiments was a 1/100 dilution of this bacterial density, which was split into 4 mL cultures. A series of 400, 100, 10 and 5 mM stock solutions of each dialkylated diaza(18-crown-6) compounds in trifluoroethanol (TFE) were diluted by adding to the 4 mL cultures until final concentrations of 400, 200, 100, 50, 20, 15, 10, 5, 4, 3, 2 and 1 μM were reached, with the final TFE concentration never >0.1% v/v. Negative controls in the presence of TFE 0.1% v/v or the absence of any treatment were done for each batch. The cultures were incubated at 37° C. with agitation for 12 h. Bacillus subtilis (168 WT) toxicity tests were carried out using an identical protocol, except for the addition of the antibiotic. […] Each compound was assayed a minimum of three times at each tested concentration.

[1] = Planar lipid bilayer ion channel recordings; assay type: biochemical
Description: Experiments in planar lipid bilayers were performed via a Nanion Orbit-mini planar bilayer system. The planar membranes were formed by painting a 25 mg/mL solution of lipids in n-nonane over the four 50 μm apertures on the chip. The lipids used were asolectin from soybean (Sigma-Aldrich) or a 3:1 w/w mix of 1-palmitoyl-2-oleoyl-sn-glycero-3-phosphoethanolamine (POPE) and 1-palmitoyl-2-oleoyl-sn-glycero-3-phospho-(1′-rac-glycerol) (POPG) (Avanti Polar lipids). The solutions tested were KCl solution (150 mM KCl, 10 mM HEPES, pH adjusted to 7.4 with KOH), NaCl solution (150 mM NaCl, 10 mM HEPES, pH adjusted to 7.4 with NaOH), and a concentrated KCl solution (500 mM KCl, 10 mM HEPES, pH adjusted to 7.4 with KOH). When the appropriate membrane formed, the voltage was clamped at 100 mV or −100 mV, and a stock solution of gramicidin D (Sigma-Aldrich) in DMSO or LEC10 in TFE were added up to the desired concentration. The tested concentration of gramicidin D was 1 nM and 2, 10, 100 and 200 μM were tested for LEC10. Two different temperatures were tested for each condition: 25 and 37° C. The current was recorded over 10 min for the gramicidin test and up to 1 h for the LEC10 test. The data was analyzed with Clampfit 10.7 software (Axon Instruments).
FIGS. 41 and 42 show the lipid bilayer recordings. Current through the asolectin planar lipid bilayer clamped at 100 mV was recorded in the presence of […] (FIG. 41) and 2 μM LEC10 (FIG. 42). In both cases, the solution was 150 mM KCl, 10 mM HEPES, pH 7.4. […] This lack of unitary channel formation, or even a carrier-like increase of the conductance, precludes an ionophore-like mechanism of ion transport.

B. subtilis cells = assay: Lactate dehydrogenase release (resofurin fluorescence), MAcBCE/MAkBCE and controls; assay type: cell-based, Bacillus subtilis; conditions: 2 μM, 37° C, potassium lactate/NAD+ solution
Description: A 2 mL liquid culture of transformed B. subtilis cells was grown at 37° C. in LB media supplemented with […] kanamycin, until OD600=0.6. Cells were collected by centrifugation at 2000 rpm over 3 min. The bacterial pellet was washed twice in lactate/NAD^+ solution (95 mM potassium lactate, 10 mM nicotinamide adenine dinucleotide (NAD^+), 10 mM HEPES, pH adjusted to 7.4 with KOH). After the last centrifugation step, the bacteria were resuspended until OD600=1.0 in the lactate/NAD^+ solution, then diluted 100× in the same solution. The working fluorophore solution was a 1 mM of resazurin sodium salt (Alfa Cesar) in water. The experiment was started with 3 mL of lactate/NAD^+ solution in a quartz cuvette, then 3.1 μL of resazurin solution was added (timepoint t1, 50 sec) for a 1 μM final concentration, followed by the addition of 100 μL of the diluted B. subtilis suspension (timepoint t2, 100 sec). After 150 sec (timepoint t3, 250 sec), 10 μL of diaphorase (Worthinton Biochemical Corporation) 10 mg/mL solution was added. The final step involved the addition of 0.62 μL of a 10 mM stock solution of dialkylated diaza lariat ether (LEC10) in TFE (timepoint t4, 400 sec), for a final LEC10 concentration of 2 μM; or 3.1 μL of a 2 mM stock solution of valinomycin in DMSO, for a final valinomycin concentration of 2 μM; or 3.1 μL of a 20 mg/mL stock solution of lysozyme in lactate/NAD^+ solution, for a final lysozyme concentration of 20 μg/mL; or 3.1 μL of 10 mM stock solution of each MAcBCE or MAkBCE compounds in TFE, for final concentrations of 10 μM. Fluorescence intensity was recorded each second using a Horiba Fluoromax 4 spectrometer (λexcitation=550 nm; λemission=583 nm). […] To normalize, the fluorescence intensity was divided by the fluorescence level just before timepoint t4. […]
Experiments were repeated at least three times per condition. To normalize, the fluorescence intensity was divided by the fluorescence level just before timepoint t4.

CCCCCCCCCCN1CCOCCOCCN(CCCCCCCCCC)CCOCCOCC1 [LEC10, Didecyl diaza(18-crown-6)]
MIC (Escherichia coli): 10 µM (≈ 5.43 µg/mL)
MIC (Bacillus subtilis): 2 µM (≈ 1.09 µg/mL)
ion channel activity ([1]; 2 μM, bilayer clamped at 100 mV, 150 mM KCl, 10 mM HEPES, pH 7.4): no ion channel activity was detected
ion channel activity ([1]; LEC10 10, 100 and 200 μM, KCl up to 500 mM or NaCl instead of KCl): no indication of ion channel activity
resofurin fluorescence (LDH release) (B. subtilis cells): increase in the resofurin fluorescence levels
